Laboratory results published in patent publication US7220822B2, “CD28 mimetics for blocking T cell mediated immune reactions” (The Ohio State University, priority 2000, dated 2007).
Blank lines part the entries; values can stand above or below the molecule they belong to. Square brackets hold non-standard residues; d marks the D form. Peptide text beside a SMILES is read from it.

Key:
B10.PL mice with EAE = assay: EAE in B10.PL mice immunized with GP-MBP in CFA, clinical score; format: in vivo, mouse; settings: for mean maximal clinical score: single i.v. 500 μg on day 14 post-immunization (established EAE); for maximum disease incidence / maximum mean cumulative score per day: single i.v. 500 μg on the day of immunization
Experimental: Female B10.PL mice (6–8 wk old) were obtained from The Jackson laboratory (Bar Harbor, Me.) and housed at the Ohio State University, (Columbus, Ohio).
Mice were injected subcutaneously over four sites on the flank with an emulsion containing 200 μg of guinea-pig-MBP in CFA containing 200 μg heat killed Mycobacterium tuberculosis, Jamaica strain. Pertussis toxin (List Biological, Campbell, Calif.) at 150 ng in 0.2 ml of PBS was given intraperitoneally at the time of immunization and 48 hours later. Animals were observed daily for clinical signs and scored as follows: 1, limp tail or waddling gait with tail tonicity; 2, waddling gait with limp tail (ataxia); 2.5 ataxia with partial paralysis of one limb, 3, partial hind-limb paralysis, 3.5 full paralysis of one limb with partial paralysis of the second limb, 4, full paralysis of two limbs, 4.5 moribund and 5, death. All mice immunized with MBP (200 μg) in CFA developed clinical disease varying between ataxia and complete hind limb paralysis by day 14 post-immunization. They were then distributed randomly into six groups with mean clinical score of each group approximately the same.
Groups of mice were left untreated or injected intravenously with 500 μg of EL CD28 or RI CD28 peptide mimetics, or LCD28, RLCD28 and DCD28 peptides. The mean clinical score of untreated mice continued to increase reaching a maximum of 3.4 on day 20. Similarly the disease continued to progress in mice treated with LCD28, RLCD28 and DCD28, reaching mean maximal clinical score of 3.8 (day 18), 3.4 (day 16 ) and 3.7 (day 16) respectively.
The biological activity of synthetic CD28 peptide analogues during antigen priming in vivo in EAE was then shown. B10.PL mice immunized with GP-MBP (200 μg) in CFA were either left untreated or injected intravenously 500 μg of EL CD28 or RI CD28 peptide mimetics or LCD28, RLCD28 and DCD28 peptides on the day of immunization. The vehicle treated mice and mice treated with: LCD28, RL CD28 and D CD28 peptide had maximum disease incidence of 100%, 100%, 91.5% and 91.5% and maximum mean cumulative score per day of 1.9, 1.8, 1.7 and 2 respectively. […] The effect of RI CD28 peptide injection lasted for the duration of observation (37 days) in one experiment.

[1] = test system: CD4+ LNC from Vα4/Vβ8.2 TCR transgenic mice; format: cell-based, mouse; settings: CD4+ LNC and spleen cells, NAc 1-11 10 μg/ml, all concentrations used
Experimental: The in vitro effect of varying concentration of the CD 28 peptide mimetics on CD4+ lymph node cells and spleen cells from transgenic mice bearing the Vα 4 Vβ8.2 TCR specific for MBP Ac 1-11 was determined.
CD4+ T cells were purified from pooled peripheral lymph nodes (inguinal, axillary, brachial, cervical, popliteal), and mesenteric lymph nodes and spleen of 6–8 wk old Vα4/Vβ8.2 TCR transgenic mice by positive selection. Single cell suspensions were prepared by lympholyte M gradient, washed, counted and incubated with magnetic bead conjugated anti-mouse CD4 (L3T4) (Miltenyi Biotech Corporation) followed by positive selection using magnetic selection columns. Purity of the CD4^+ cells was greater than 90% as assessed by staining with FITC labeled anti-mouseVβ8.2 mAb (Pharmingen). During the selection process, T cells maintain a naïve phenotype with no evidence for T cell activation as measured by proliferation in culture. Purified CD4+ T-cells (5×10^4 cells/well) were cultured together with wild type splenocytes from B10.PL mice as APC's (10^5 cells/well) in RPMI 1640 containing 10% FCS, 25 mM HEPES, 2 mM L-glutamine, 50 U/ml penicillin, 50 μg/ml streptomycin, and 5×10–5 M 2-ME in round-bottom 96-well plates and MBP (40 μg/ml) or MBP NAc1-11 (10 μg/ml) or media only in the presence or absence of synthetic CD28 peptide analogues at different concentrations in triplicate wells for 72 h, including a final 18-h pulse with [^3H] thymidine. Cultures were harvested onto glass-fiber mats using a Skatron harvester (Skatron, Sterling, Va.) and were counted by liquid scintillation on LKB Betaplate (LKB, Rockville, Md.). The means of the triplicate were determined and the results are expressed as delta cpm (mean counts per minute of cultures with Ag-mean counts per minute of cultures with medium alone)±SD.

CD80-Ig = biological target: T1, CD80-Ig (Homo sapiens, UniProt P33681); assay: Direct kinetic analysis of CD28 peptide binding to immobilized CD80-Ig by surface plasmon resonance (BIACORE)
T1 construct: extracellular domain of CD80 fused with the constant region of mouse IgG1 heavy chain
Experimental: Binding experiments were performed by surface plasmon resonance (SPR) on an instrument sold under the trademark BIACORE™ from Pharmacia Biosensor (Uppasala, Sweden).
CD80-Ig (extracellular domain of CD80 fused with the constant region of mouse IgG1 heavy chain) at 35 μg/ml in 10 mM sodium acetate buffer, pH 4.2, was coupled to a research grade CM 5 sensor chip using a standard amine coupling procedure with the following modifications (38). To reduce the immobilization level of the ligand, the surface was activated for 3 (instead of 7) minutes with N-hydroxysuccinamide and […]. […] Following coupling, noncovalently bound ligand was removed by washing twice with 5 mM NaOH.
The analytes were also injected at the same concentration and injection times over an empty flow cell with nothing immobilized.
Data analysis was performed with BIAEVALUATION™ software version 2.1(Pharmacia Biosensor AB). […] Prior to kinetic analysis, data were adjusted to zero baseline level by subtracting the background responses obtained by injection of the analytes through a control flow cell with no ligand immobilized. First, the dissociation rate constant, kd, (units: s^−1) was determined, by fitting experimental data from the buffer flow part of the sensogram to the equation R(t)=R1*e^−kd*(t^0^−t^1^) (1) where t0 is the injection time, R1 is the response level at the start of dissociation time t1 and kd is the dissociation rate constant.
The kd value obtained was used as a constant during the analysis of the injection phase data. Binding data above the noise level was selected by converting the sensogram to a plot of the logarithm of the binding rate vs time (dR/dt vs. time). The ka was determined by nonlinear curve fitting of the following equation R(t)=Req*{1−e^−(k^a^*C+k^d^)*(t) (2) where R(t) is the response at time t, Req is the steady state response level, ka is the association rate constant (units: M^−1s^−1), kd is the dissociation rate constant and C is the concentration of the injected peptide analyte. An offset was added to account for the refractive index differences between the analyte and the running buffer.
After analyzing sensograms obtained from injections of increasing concentrations of peptide analytes or CD28-Ig, the experimental data was analyzed using the BIAsimulation software 2.1. A plot of the logarithm of (dR/dt) against time was calculated from the sensograms, and then the slopes at different concentrations were plotted against the concentrations of the peptide analyte. Different angles obtained of the linear lines represent the variation of affinities, which gives the association rate constant (ka) from the equation ln dR/dt=ln(kaCR max)−KaC+kd)t (4) where dR/dt is the rate of change of the SPR signal, C is the concentration of the analyte, Rmax is the maximum analyte binding capacity in RU and R is the SPR signal in RU at time t. The dissociation rate constant is obtained from the equation Kd=kd/ka (5)

[2] = test system: lymph node cells of MBP-primed mice; assay: IL-2 ELISPOT of draining lymph node cells from peptide-treated MBP-immunized mice; format: in vivo, mouse; settings: mice treated on day 0 of immunization, ELISPOT on restimulation
Experimental: Ninety-six well unifilter plates (Polyfiltronics, Rockland, Md.) were coated overnight at 4° C. with rat anti-mouse IL-2 (Clone JES6-1A12) (Pharmingen, Calif.) at 4 μg/ml. The plates were then washed 4× with sterile PBS and blocked with 1% BSA in DMEM for 2 h at room temperature. Subsequently, isolated single cell suspensions of CD4+ LNC (5×10^6 cells/ml) and splenocytes (10×10^6 cells/ml) were added with the antigens and CD28 peptides under the conditions as specified for the proliferation assays. After 24 h of culture in the incubator, the cells were removed by washing 3× with PBS and 4× with PBS containing Tween (1:2000) (PBST). Then biotinylated anti mouse-IL-2 (Clone JES6-5H4) (Pharmingen, Calif.) 2 μg/ml was added and incubated at 4° C. overnight. After washing 3× with PBST and 3× with PBS, goat anti-biotin antibody conjugated to alkaline phosphatase (Vector Laboratories Inc, Burlingame, Calif.) diluted to 1:1000 in PBST containing 1% BSA was added and incubated for 2 h at room temperature. The spots were visualized by adding BCIP/NBT phosphatase substrate (Kirkeguard & Perry Laboratories, Gaithesburg, Md.). Image analysis of ELISA spot assays was performed on a Series 1 Immunospot Image Analyzer (Autoimmun Diagnostika (US) Inc.) customized for analyzing ELISA spots to meet objective criteria for size, chromatic density, shape and color.
MBP reactive T cells that induce EAE are known to display a Th1 phenotype secreting the proinflammatory cytokines IL-2, […] and TNF-β (36. Kay, B. K., M. P. Williamson, and M. Sudol. 2000. Faseb J 14, no. 2:231). ELISPOT assay was used to assess in vitro cytokine production by draining lymph node cells and splenocytes upon restimulation from in vivo MBP-primed T cells. Mice were treated as described in Example 3, on day 0 of immunization.

T1 sequence (P33681 35-242 limits assumed, other chains not shown): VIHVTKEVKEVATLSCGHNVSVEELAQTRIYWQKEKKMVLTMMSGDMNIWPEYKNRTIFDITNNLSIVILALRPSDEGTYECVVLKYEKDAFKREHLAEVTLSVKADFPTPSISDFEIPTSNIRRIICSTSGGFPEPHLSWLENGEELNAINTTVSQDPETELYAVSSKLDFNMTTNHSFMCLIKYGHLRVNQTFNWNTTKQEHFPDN

maximum response units obtained for binding to CD80-Ig (CD80-Ig; SPR direct binding): 478 RU
Molecule: CC[C@H](C)[C@H](NC(=O)[C@@H](NC(=O)CNC(=O)[C@H](CC(N)=O)NC(=O)[C@H](CO)NC(=O)[C@H](CCCNC(=N)N)NC(=O)[C@H](CCC(=O)O)NC(=O)[C@H](CC(N)=O)NC(=O)[C@H](CC(=O)O)NC(=O)[C@H](CC(C)C)NC(=O)[C@H](Cc1ccc(O)cc1)NC(=O)[C@@H]1CCCN1C(=O)[C@@H]1CCCN1C(=O)[C@@H]1CCCN1C(=O)[C@H](Cc1ccc(O)cc1)NC(=O)[C@H](CCSC)NC(=O)[C@H](Cc1ccccc1)NC(=O)[C@H](CCC(=O)O)NC(=O)[C@@H](NC(=O)[C@@H](N)CCCCN)[C@@H](C)CC)[C@@H](C)O)C(=O)O [L CD28, NH2KIEFMYPPPYLDNERSNGTICOOH] (H-KIEFMYPPPYLDNERSNGTI-OH)
mean maximal clinical score (B10.PL mice with EAE): 3.8
maximum disease incidence (B10.PL mice with EAE): 100%
maximum mean cumulative score per day (B10.PL mice with EAE): 1.8
proliferative response / inhibition of T cell proliferation (in words) [1]: significantly less

Molecule: CH3COD[KIEFMYPPPYLDNERSNGTI]DCONH2 (Ac-[dK][dI][dE][dF][dM][dY][dP][dP][dP][dY][dL][dD][dN][dE][dR][dS][dN]G[dT][dI]-NH2) [D CD28, D-peptide (Control), reference compound]
frequency of IL-2 secreting lymph node cells [2]: 2675+/−14.2
mean maximal clinical score (B10.PL mice with EAE): 3.7
maximum disease incidence (B10.PL mice with EAE): 91.5%
maximum mean cumulative score per day (B10.PL mice with EAE): 2
proliferative response / inhibition of T cell proliferation (in words) [1]: did not show inhibition

Molecule: CH3COL[ITGNSRENDLYPPPYMFEIK]LCONH2 (Ac-ITGNSRENDLYPPPYMFEIK-NH2) [RL CD28, Reverse-L-peptide (Control), reference compound]
frequency of IL-2 secreting lymph node cells [2]: 3386+/−23.3
mean maximal clinical score (B10.PL mice with EAE): 3.4
maximum disease incidence (B10.PL mice with EAE): 91.5%
maximum mean cumulative score per day (B10.PL mice with EAE): 1.7
proliferative response / inhibition of T cell proliferation (in words) [1]: did not show inhibition

binding to CD80-Ig (in words) (CD80-Ig; data not shown): did not bind
Molecule: MYPPPY (listed as Homo sapiens) [hexapeptide, reference compound]
proliferative response / inhibition of T cell proliferation (in words) [1]: did not show inhibition
